Values joined by “and” are separate entries in the source; they are usually repeats but may differ in a detail not shown here. Equal entries are not always repeated. “Also recorded” adds a separate entry of the source.
How the values were obtained:
[1] = system: healthy human skin transplanted onto beige-SCID mice; test: Humanized psoriasis model, human skin xenografts on beige-SCID mice; type: in vivo, mouse; conditions: for proliferation index (% Ki-67 positive cells): vs vehicle; for Healthy Skin, number of grafts / Psoriasiform Skin, number of affected grafts / Partial Psoriasiform With Tendency Towards Healthy skin, number of grafts: histological evaluation, day 28; for epidermal thickness: vs vehicle treated group
From the text: In this model, psoriasis is induced in xenotransplants of healthy human skin transplanted onto beige severe combined immunodeficiency (SCID) mice followed by intradermal (i.d.) injection of IL-2 enriched Peripheral Blood Mononuclear Cells (PBMCs) isolated from blood of psoriasis patients (Nickoloff, 1995; Wrone-Smith, 1996 Gilhar et al., 2002, 2006, 2011). The activity of these compounds was compared to that of Enbrel, a TNF inhibitor which is an approved biological drug for treatment of psoriasis. As a control for model robustness, we used dexamethasone, a steroid with suppressive effects on inflammatory cytokines and chemokines such as TNF-alpha and interferon-gamma which cause severe psoriasis. All treatments were administered intradermally, except for dexamethasone which was given topically.
2.2. Study Protocol A) Healthy human skin pieces with a width of 0.4 mm and surface area of 1.5×1.5 cm were provided from residual skin of routine plastic surgery procedures from the Plastic Surgery Department of the Rambam Medical Center, Israel. In addition, 20 mL blood samples were taken from psoriatic patients. B) Seventy (70) beige-severe combined immunodeficient mice (SCID) (weight ˜20-25 g) were included in this study. Normal healthy human donor skin was transplanted onto the beige-SCID mice as previously described (Nickoloff et al., 1995; Wrone-Smith, 1996; Gilhar et al., 2002, 2006, 2011; Kalish et al., 2009) and the mice were divided into 7 groups. C) Peripheral Blood Mononuclear Cells (PBMCs) isolated from psoriatic patients' blood were cultured in the presence of IL-2 [Prospec, 100 U/mL of RPMI 1640 media, 10% human AB serum (Sigma, St. Louis, Mo.), 1% glutamine, 1% antibiotics (media components; Biological Industries, Kibbutz Beit Haemeck, Israel)] for 14 days, as previously described (Gilhar et al, 2002). D) Four weeks following engraftment, each mouse was injected intra-dermally (i.d.) into the grafted skin lesion, with 1×10^7 activated allogeneic enriched PBMCs from psoriatic patients (FIG. 20). Cells from different psoriasis patients were equally distributed between treatment groups so that each patient is represented in each treatment group. E) On the day of PBMCs injection into the skin grafts, mice were divided randomly into treatment groups (n=9-10 mice per group) and administration of all drugs started (FIG. 20). All tested compounds including the vehicle were given intradermally (intralesional), three times a week, except for dexamethasone which was given topically for 14 consecutive days (Table 3).
F) Twenty eight days after starting the injections and treatment, skin was harvested (FIG. 20). Grafts were analyzed for the following psoriatic parameters by histology: epidermal thickening (acanthosis), suprapapillary epidermal thinning (papillomatosis), hyperkeratosis, parakeratosis, orthokeratosis, agranulosis-hypogranulosis, appearance of neutrophils in the upper spinous layer or in the corneal cell layer—Munro microabscess, regular elongation of rete ridges, angiogenesis, edema and dilated tortuous blood vessels in the dermal papilla and mononuclear cell infiltrate in the papillary dermis. Epidermal thickness was measured as detailed below, and HLA-DR, ICAM-1, Ki-67 and immune infiltrates (anti-CD3 stain) were evaluated by immunohistochemistry (IHC).
The entire skin graft was excised and placed in 10% formal saline overnight. Then, the specimens were place in 70% ethanol and were embedded according to the standard H&E protocol. Histological assessment of the skin grafts was performed by light microscopy and evaluated by two blinded observers [the second observer evaluated random slides (about 25% of all slides) to compare the data obtained by the first observer. […] Epidermal thickness was determined with an ocular micrometer at a minimum of 50 points along the epidermis selected to represent points of maximal and minimal thickness.
Representative grafts were allocated for IHC analysis. […]

[2] = system: TcK and macrophages co-cultures; test: TcK:macrophage co-culture cytokine secretion, healthy volunteers; type: cell-based, human; conditions: buffy coats of healthy volunteers
Protocol: • Purified CD4+ cells (2×10^6 cells/ml) are activated for 6 days in complete medium containing IL-15 (100 ng/ml), IL-6 (100 ng/ml) and TNFa (25 ng/ml).
TcKs are added to macrophage culture following removal of existing culture media at a ratio of 4:1 (5×10^4 cells/well/CD4^+ T cells plus 2×10^5 cells/well CD14^+ Macrophages). C1ORF32 ECD-Fc (SEQ ID NO:43) or Control IgG are added at 1, 3, 10, 30 μg/ml. For additional controls co-cultures are added with vehicle or with medium only (Wennink et al., 2012).
After 24 hrs of culture, cytokines (IL-10, IFN-α, IL-6, IL-12, RANTES, IL-13, IL-15, IL-17, MIP-1α, GM-CSF, IFNγ, TNFα, IL-1RA, IL-7, IL-1B, eotaxin, IL-2 IL-4 and IL-2R) are analyzed using ELISA and/or Luminex.
Co-culture of TcK with autologeuos ex-vivo differentiated macrophages mimics one of the crucial pathways mediating synovial macrophage activation in RA thus serving as a translational tool for evaluating the therapeutic potential of drug candidates. Therefore the effect of C1ORF32 ECD-Fc (SEQ ID NO:43) was tested on the secretion of a range of pro-inflammatory and anti-inflammatory cytokines in such co-cultures. Two studies were carried out, one in which buffy coats from healthy volunteers was used and another study in which the responses of RA patients blood cells responses were compared to that of healthy voluntiers in which blood was used rather than buffy coats.

MS patients' PBMCs = test: Proliferation and cytokine secretion of PBMCs from MS patients; type: cell-based, human
Protocol: PBMCs were taken from eight MS patients with diagnosed relapsing-remitting disease who have experienced a relapse 1-2 days prior to blood drawing.
PBMCs were plated in a flat-bottom 96-well plate at 1e6 cells/well. The cells were cultured in the presence of anti-CD3 (0.5 ug/ml), MS-specific peptide MBP85-96 (10 ug/ml), or tetanus toxoid peptide TT830-843 (10 ug/ml). C1ORF32 ECD-Fc (SEQ ID NO: 43) or Control Ig were added to the cuture at the indicated concentrations. Two replicate plates were set to study for the effect of C1ORF32 ECD-Fc (SEQ ID NO: 43) on proliferation and on pro-inflammatory and anti-inflammatory cytokines secretion. To test for proliferation, the cultures were pulsed on day +1 of culture with 1uCi of tritiated thymidine and then harvested 3 days later on day +4 of culture. For cytokine analysis, super natantes from a replicate cultures were collected on day +4 of culture and tested using Millipore multiplex assay.

[3] = system: synovial-like T-cell - macrophage co-cultures; test: Synovial-like T-cell - macrophage co-cultures from RA patients not responding to TNF blockers, TNFa secretion; type: cell-based, human
From the text: The therapeutic potential of C1ORF32-ECD-FC (SEQ ID #43) for treating RA was studied in co-cultures of activated T cells and macrophages that were modified to mimic the deleterious interaction of these cells in RA synovium. This interaction drives the secretion of pro-inflammatory cytokines that play a major role in the pathology of RA, leading to progressive joint inflammation and to joint destruction. Thus, these co-cultures provide a translational tool to evaluate the effect of potential drugs for treatment of RA (Wenink et al., Ann Rheum Dis 2012; 71:1 80-83).
Purified T cells and myeloid cells from blood of RA patients that fail to respond to treatment with TNF blockers were activated for 6 days with TNFa, IL-6 and IL-15 and co-cultures with Monocytes derived macrophages that were generated by activation of CD14+ monocytes with M-CSF for 6 days.
The amounts were administered as follows: FIG. 33: 30microg/ml of each protein; FIG. 34: 3, 10, 30microg/ml of each protein as shown.

male DBA-1 mice = test: Established collagen induced arthritis (CIA), macroscopic and histological scores; type: in vivo, mouse; conditions: Enbrel 5 mg/kg
Protocol: Bovine type II collagen (CII) (RUNMC in house production, batch 03-04-08) at a concentration of 2 mg/ml in acetic acid 0.05M was emulsified in equal volumes of Freund's complete adjuvant (2 mg/ml of Mycobacterium tuberculosis strain H37Ra; Difco, Detroit, Mich.).
On day 0, 10-12 week old male DBA-1 mice (Janvier Elevage, France) (n=95) were immunized i.d. at the base of the tail with 100 μg of bovine CII. On day 21, mice received an intraperitoneal booster injection of 50 μg of CII dissolved in phosphate buffered saline (PBS), and the onset of arthritis occurred a few days after this booster.
Joint inflammation in each paw was scored visually, using a scale of 0-2 per paw with a maximal score of 8 per animal: 0=non inflamed, 1=mild inflammation, 1.5=marked inflammation, and 2=severe inflammation. Scoring was performed three times a week.
Treatment was started in established CIA early after onset of disease (i.e. therapeutic regimen), when the macroscopic scores per animal were between 0.25 and 1.25 (on a scale of 0-8). […] Histology was scored for inflammation and destruction on an arbitrary scale of 0-3, for five different parameters: […]
Joints were fixed for at least 4 days in 4% formaldehyde, decalcified in 5% formic acid, and subsequently dehydrated and embedded in paraffin. […] The severity of inflammation in the joints was scored on a scale of 0-3 (0=no cells, 1=mild cellularity, 2=moderate cellularity, and 3=maximal cellularity). […] Depletion of PG was determined using an arbitrary scale of 0-3, ranging from normal, fully stained cartilage to destained cartilage, fully depleted of PGs. Chondrocyte death was scored on a scale of 0-3 ranging from no loss of chondrocyte nuclei to complete empty cartilage surface. The degree of cartilage surface erosion was scored on a scale of 0-3, ranging from no damage to complete loss of articular cartilage. […] Histopathological changes in the joint were scored on three semiserial sections of the joint spaced 70 μm apart. […]

psoriasis patients = conditions: at week 12; cited from earlier work

C1ORF32 ECD-Fc (SEQ ID NO: 43): human-human fusion protein: human C1ORF32 ECD fused to human immunoglobulin Fc (SEQ ID NO:43)
expression of HLA-DR, ICAM-1 and Ki-67 ([1]; IHC): decreased expression | proliferation index (% Ki-67 positive cells) ([1]; IHC): trend towards decrease | proliferation index (% Ki-67 positive cells) ([1]; IHC, listed as C1ORF ECD-Fc (SEQ ID NO:43)): most pronounced reduction | Healthy Skin, number of grafts [1]: 5/9 | Psoriasiform Skin, number of affected grafts [1]: 4/9 | cases in which disease symptoms were eliminated ([1]; summary in detailed description): about a third of the cases | epidermal thickness ([1]; listed as C1ORF ECD-Fc (SEQ ID NO:43)): significant reduction | secretion of TNFa, RANTES, MIP-1a, GM-CSF and IL-5 [2]: inhibited | proliferation, secretion of IFNg, IL-17 and TNFa (MS patients' PBMCs; absence of activation): no effect | IL-10, IL-4, TGFb and IL-6 (MS patients' PBMCs; absence of activation, in some of the donors): elevation | IL-4, IL-10, TGFb and IL-6 secretion (MS patients' PBMCs; activated ex-vivo with MBP85-96): increase | TNFa secretion ([3]; Example 20, 30 microg/ml): decreased the secretion of TNFα | TNFa secretion in one of the donors ([3]; Example 20, 30 microg/ml): inhibited TNFα secretion | TNFa secretion ([3]; Example 21, 3, 10, 30 microg/ml): decreased the secretion of TNFa; also recorded: inhibition of TNFa secretion in a dose dependent manner

C[C@@H]1C[C@H]2[C@@H]3CCC4=CC(=O)C=C[C@]4(C)[C@@]3(F)[C@@H](O)C[C@]2(C)[C@@]1(O)C(=O)CO [dexamethasone]
Healthy Skin, number of grafts [1]: 7/10 | Partial Psoriasiform With Tendency Towards Healthy skin, number of grafts [1]: 1 | Psoriasiform Skin, number of affected grafts [1]: 2 and 2/10 | Partial Psoriasiform With Tendency Towards Healthy skin, number of grafts ([1]; listed as Dexa): 1/10 | Psoriasiform Skin, number of affected grafts ([1]; listed as Dexa): 2/10 | grafts with moderate lymphocytic infiltration ([1]; mouse, in vivo): 1/10

Enbrel
bone erosions, histology (male DBA-1 mice): significant reduction | proliferation index (% Ki-67 positive cells) ([1]; IHC): trend of decrease | Healthy Skin, number of grafts [1]: 3/9 | Psoriasiform Skin, number of affected grafts [1]: 6/9 | epidermal thickness [1]: no substantial effect; also recorded: no significant reduction | psoriasis patients achieving PASI 75 (psoriasis patients): Forty nine
